In patent publication US8299068B2, “Therapeutically active cyclopentanes” (Allergan, Inc., priority 2010, dated 2012) one finds EC50 and Ki data, which are given here for 5 compounds.

Assay [1] deals with T1, EP2 (Homo sapiens, UniProt P43116). The experiment in a line: EP2 Ca2+ signal functional assay. Format: cell-based. The source says:
(§1) U.S. Pat. No. 7,427,685 incorporated by reference herein, describes the methods used to obtain the in vitro data in Table 2 below.

Assay [2] concerns the target T1, EP2. The experiment in a line: EP2 binding (Ki).
Source text: as §1

Assay [3] has as its target T2, EP4 (Homo sapiens, UniProt P35408). The experiment in a line: EP4 binding (Ki).
Source text: as §1

For the next assay, the target named is T3, DP (Homo sapiens, UniProt Q13258).
T3 sequence (Q13258 1-359): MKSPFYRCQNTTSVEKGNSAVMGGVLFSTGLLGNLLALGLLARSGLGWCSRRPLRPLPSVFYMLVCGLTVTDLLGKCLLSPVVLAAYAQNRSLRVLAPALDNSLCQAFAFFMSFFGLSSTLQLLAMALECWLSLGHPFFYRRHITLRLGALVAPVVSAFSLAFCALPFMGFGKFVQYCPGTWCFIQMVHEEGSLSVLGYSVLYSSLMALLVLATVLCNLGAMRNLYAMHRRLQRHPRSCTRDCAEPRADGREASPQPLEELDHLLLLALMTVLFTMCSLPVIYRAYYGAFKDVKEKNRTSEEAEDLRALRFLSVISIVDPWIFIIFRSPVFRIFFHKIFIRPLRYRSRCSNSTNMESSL
The experiment in a line: Other receptors Ca2+ functional assay, DP. Format: cell-based.
Source text: as §1

The target of assay [4] is T1, EP2. The experiment in a line: EP2 cAMP functional assay. Format: cell-based.
Source text: as §1

In assay [5] the target is T2, EP4. The experiment in a line: EP4 Ca2+ signal functional assay. Format: cell-based.
Source text: as §1

Another assay addresses T4, EP3 (Homo sapiens, UniProt P43115).
T4 sequence (P43115 1-390): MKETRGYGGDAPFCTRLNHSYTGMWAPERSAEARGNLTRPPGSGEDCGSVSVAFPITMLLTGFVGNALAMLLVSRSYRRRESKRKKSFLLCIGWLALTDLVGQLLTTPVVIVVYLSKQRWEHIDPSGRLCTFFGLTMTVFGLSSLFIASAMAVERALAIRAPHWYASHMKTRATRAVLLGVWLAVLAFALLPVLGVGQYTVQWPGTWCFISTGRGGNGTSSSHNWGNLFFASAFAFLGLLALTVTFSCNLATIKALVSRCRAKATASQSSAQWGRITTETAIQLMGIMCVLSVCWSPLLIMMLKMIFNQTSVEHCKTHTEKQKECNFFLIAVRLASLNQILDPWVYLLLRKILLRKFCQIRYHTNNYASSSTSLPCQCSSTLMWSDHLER
The experiment in a line: Other receptors Ca2+ functional assay, EP3. Format: cell-based.
Source text: as §1

T2 sequence (P35408 whole entry): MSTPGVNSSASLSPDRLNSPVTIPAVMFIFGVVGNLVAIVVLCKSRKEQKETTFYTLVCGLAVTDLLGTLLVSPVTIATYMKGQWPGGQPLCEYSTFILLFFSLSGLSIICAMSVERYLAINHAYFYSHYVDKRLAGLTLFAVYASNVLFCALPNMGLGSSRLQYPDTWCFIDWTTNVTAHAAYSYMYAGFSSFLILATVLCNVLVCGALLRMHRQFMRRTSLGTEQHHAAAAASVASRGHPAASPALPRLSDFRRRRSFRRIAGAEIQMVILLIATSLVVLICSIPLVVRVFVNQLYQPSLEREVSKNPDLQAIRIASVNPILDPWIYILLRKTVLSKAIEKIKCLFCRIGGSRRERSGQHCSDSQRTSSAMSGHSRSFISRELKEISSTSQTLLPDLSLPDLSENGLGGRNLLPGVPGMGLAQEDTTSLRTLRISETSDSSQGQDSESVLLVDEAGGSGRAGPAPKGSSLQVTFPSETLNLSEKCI
T1 sequence (P43116 whole entry): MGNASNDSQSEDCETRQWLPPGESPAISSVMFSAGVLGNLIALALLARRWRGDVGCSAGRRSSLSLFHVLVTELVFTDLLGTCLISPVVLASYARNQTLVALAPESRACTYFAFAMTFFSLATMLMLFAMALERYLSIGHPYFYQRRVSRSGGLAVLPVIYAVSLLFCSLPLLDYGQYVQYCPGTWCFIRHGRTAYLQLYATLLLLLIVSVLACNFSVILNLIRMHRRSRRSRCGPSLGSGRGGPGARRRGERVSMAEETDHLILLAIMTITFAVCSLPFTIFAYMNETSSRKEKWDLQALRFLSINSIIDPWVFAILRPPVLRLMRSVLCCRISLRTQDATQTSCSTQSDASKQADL

Consider `O=C(O)c1ccc(CCC[C@@H]2[C@@H](/C=C/C3CCCC3)[C@H](O)C[C@H]2Cl)s1` [Entry 2], for which the EC50 was determined as 3 nM at EP2 [1], 191 nM at DP, 0.9 nM at EP2 [4] and 1350 nM at EP4 [5]. The Ki on EP2 [2] was found to be 10 nM; on EP4 [3], 2740 nM.
With `O=C(O)c1ccc(CCC[C@@H]2[C@@H](CCC3CCCCC3)[C@H](O)C[C@H]2Cl)s1` [Entry 3], the EC50 at EP2 [1] was found to be 12 nM; on EP3, 9050 nM; on DP it was 548 nM; at EP2 [4], 0.2 nM; at EP4 [5], 6640 nM. The Ki at EP2 [2] was 0.8 nM; at EP4 [3], 2150 nM.
As to `O=C(O)c1ccc(CCC[C@@H]2[C@@H](/C=C/C3CCCCC3)[C@H](O)C[C@H]2Cl)s1` [Entry 4], the EC50 is 7 nM at EP2 [1]; 5220 nM on EP3; 2160 nM on DP; 0.5 nM at EP2 [4]; 3320 nM at EP4 [5]. Moreover, the Ki on EP2 [2] amounted to 4 nM; on EP4 [3] it was 2710 nM.
For the compound `CCCCCC1(CC[C@@H]2[C@@H](CCCc3ccc(C(=O)O)s3)[C@H](Cl)C[C@H]2O)CCCCC1` [Entry 5], the figures for the EC50 at EP2 [1], on EP2 [4] and on EP4 [5] were 2410 nM, 152 nM and 9330 nM, respectively. The results for the Ki at EP2 [2] and at EP4 [3] were 1040 nM and 5060 nM, respectively.
With `O=C(O)c1ccc(CCC[C@@H]2[C@@H](CCC3CCCC3)[C@H](O)C[C@H]2Cl)s1` [compound 1], the EC50 turned out to be 4 nM on EP2 [1], 259 nM at DP, 0.6 nM at EP2 [4] and 3070 nM on EP4 [5]. Further, the Ki at EP2 [2] was 9 nM; at EP4 [3], 2620 nM.

What is called EC50 is the midpoint of the concentration-response curve. In general, Ki refers to a dissociation constant, usually derived from enzyme kinetics or from competition with a known ligand. Lower therefore signals a stronger hold on the target.
